Experiments:
[1] = system: RCC-JW (Kidney Carcinoma); test: Bliss excess, mean over the matrix (fraction); higher = more synergy
Method in brief: (§1)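 Bliss excess equals the observed combination effect minus the expected value EA + EB − EA·EB, where EA and EB are the effects of each agent alone. Combination Emax is the second-highest inhibition within the matrix. Inhibition was scaled from CellTiter-Glo 2.0 luminescence, with 0 set by vehicle wells and 1 by blank wells, after 72 hours of two-drug dosing of cells plated in 1536-well plates.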

[2] = system: MONO-MAC-6 (Acute Myeloid Leukemia); test: as above
Method in brief: as §1

[3] = system: LS-1034 (Colorectal Carcinoma); test: as above
Method in brief: as §1

SK-N-SH (Neuroblastoma) = test: as above
Method in brief: as §1

ES6 (Ewing's Sarcoma) = test: as above
Method in brief: as §1

KALS-1 (Glioblastoma) = test: as above
Method in brief: as §1

[4] = system: C-33-A (Cervical Carcinoma); test: as above
Method in brief: as §1

[5] = system: HPAF-II (Pancreatic Carcinoma); test: as above
Method in brief: as §1

[6] = system: BxPC-3 (Pancreatic Carcinoma); test: as above
Method in brief: as §1

[7] = system: KP-4 (Pancreatic Carcinoma); test: as above
Method in brief: as §1

[8] = system: MDA-MB-415 (Breast Carcinoma); test: as above
Method in brief: as §1

[9] = system: MS-1 (Small Cell Lung Carcinoma); test: as above
Method in brief: as §1

[10] = system: LCLC-103H (Non-Small Cell Lung Carcinoma); test: as above
Method in brief: as §1

[11] = system: KP-4 (Pancreatic Carcinoma); test: combination Emax (second highest fraction inhibited in the dose matrix, 72 h); higher = more inhibition; extreme values may be limits of the assay
Method in brief: as §1

Compound	Bliss excess [1]	Bliss excess [2]	Bliss excess [3]	Bliss excess (SK-N-SH (Neuroblastoma))	Bliss excess (ES6 (Ewing's Sarcoma))	Bliss excess (KALS-1 (Glioblastoma))	Bliss excess [4]	Bliss excess [5]	Bliss excess [6]	Bliss excess [7]	Bliss excess [8]	Bliss excess [9]	Bliss excess [10]	combination Emax [11]
C=CCn1c(=O)c2cnc(Nc3ccc(N4CCN(C)CC4)cc3)nc2n1-c1cccc(C(C)(C)O)n1 [AZD1775] + CCc1c2c(nc3ccc(O)cc13)-c1cc3c(c(=O)n1C2)COC(=O)[C@]3(O)CC [SN-38] (first compound max 1 µM, partner max 0.3 µM)	-0.0187	-0.0158	0.0498	-0.019	-0.0995	0.0642	0.0561	-0.0218	-0.101	0.0054	-0.009	-0.0292	0.0015	–
C=CCn1c(=O)c2cnc(Nc3ccc(N4CCN(C)CC4)cc3)nc2n1-c1cccc(C(C)(C)O)n1 [AZD1775] + Nc1ccn([C@@H]2O[C@H](CO)[C@@H](O)C2(F)F)c(=O)n1 [Gemcitabine] (first compound max 1 µM, partner max 0.3 µM)	-0.0163	0.0322	0.0159	-0.0051	-0.0385	0.0299	0.0713	0.0046	-0.029	–	0.0228	-0.0721	0.0858	–
CN(CCO)CC[C@H](CSc1ccccc1)Nc1ccc(S(=O)(=O)NC(=O)c2ccc(N3CCC([C@@H](O)c4ccccc4-c4ccc(Cl)cc4)CC3)cc2)cc1S(=O)(=O)C(F)(F)F [AZD4320] + CC(=O)O[C@H]1C(=O)[C@@]2(C)[C@H]([C@H](OC(=O)c3ccccc3)[C@]3(O)C[C@H](OC(=O)[C@H](O)[C@@H](NC(=O)c4ccccc4)c4ccccc4)C(C)=C1C3(C)C)[C@]1(OC(C)=O)CO[C@@H]1C[C@@H]2O [Paclitaxel] (first compound max 1 µM, 7x7, partner max 3 µM)	0.0707	0.0285	0.0038	-0.0254	0.101	0.0468	0.0811	0.0952	0.157	-0.0097	-0.0059	0.0825	0.0719	–
CN(CCO)CC[C@H](CSc1ccccc1)Nc1ccc(S(=O)(=O)NC(=O)c2ccc(N3CCC([C@@H](O)c4ccccc4-c4ccc(Cl)cc4)CC3)cc2)cc1S(=O)(=O)C(F)(F)F [AZD4320] + CS(=O)(=O)CCNCc1ccc(-c2ccc3ncnc(Nc4ccc(OCc5cccc(F)c5)c(Cl)c4)c3c2)o1 [Lapatinib] (first compound max 1 µM, 7x7, partner max 10 µM)	-0.0443	0.103	0.0441	0.112	-0.0017	0.0176	0.0074	0.031	-0.025	-0.0251	0.0355	0.068	-0.0224	0.186
CN(CCO)CC[C@H](CSc1ccccc1)Nc1ccc(S(=O)(=O)NC(=O)c2ccc(N3CCC([C@@H](O)c4ccccc4-c4ccc(Cl)cc4)CC3)cc2)cc1S(=O)(=O)C(F)(F)F [AZD4320] + Nc1ccn([C@@H]2O[C@H](CO)[C@@H](O)C2(F)F)c(=O)n1 [Gemcitabine] (first compound max 1 µM, 7x7, partner max 0.3 µM)	-0.0025	-0.0237	-0.0357	0.0106	0.0253	0.0063	0.0113	-0.0087	-0.0248	–	0.0347	-0.0023	-0.0122	–
Cc1c2c(nn1C)CSCc1cc(n(C)n1)CSc1cc(c3ccccc3c1)OCCCc1c(C(=O)O)n(C)c3c-2c(Cl)ccc13 [AZD5991] + CC(=O)O[C@H]1C(=O)[C@@]2(C)[C@H]([C@H](OC(=O)c3ccccc3)[C@]3(O)C[C@H](OC(=O)[C@H](O)[C@@H](NC(=O)c4ccccc4)c4ccccc4)C(C)=C1C3(C)C)[C@]1(OC(C)=O)CO[C@@H]1C[C@@H]2O [Paclitaxel] (first compound max 1 µM, 7x7, partner max 3 µM)	-0.0029	0.0152	-0.0473	-0.0507	0.005	0.0314	-0.0095	0.0356	0.0075	-0.0288	0.0268	-0.0135	-0.0118	0.965
Cc1c2c(nn1C)CSCc1cc(n(C)n1)CSc1cc(c3ccccc3c1)OCCCc1c(C(=O)O)n(C)c3c-2c(Cl)ccc13 [AZD5991] + CS(=O)(=O)CCNCc1ccc(-c2ccc3ncnc(Nc4ccc(OCc5cccc(F)c5)c(Cl)c4)c3c2)o1 [Lapatinib] (first compound max 1 µM, 7x7, partner max 10 µM)	-0.0401	0.0012	-0.0332	0.0615	0.0331	0.0053	0.0485	-0.0209	-0.005	-0.0211	0.0015	-0.0273	-0.025	0.15
Cc1c2c(nn1C)CSCc1cc(n(C)n1)CSc1cc(c3ccccc3c1)OCCCc1c(C(=O)O)n(C)c3c-2c(Cl)ccc13 [AZD5991] + Nc1ccn([C@@H]2O[C@H](CO)[C@@H](O)C2(F)F)c(=O)n1 [Gemcitabine] (first compound max 1 µM, 7x7, partner max 0.3 µM)	0.0274	-0.0133	-0.0473	-0.0198	-0.002	-0.0036	0.0332	-0.0059	0.0052	–	-0.0407	-0.0371	-0.0722	–
C[C@@H]1COCCN1c1cc(C2([S@](C)(=N)=O)CC2)nc(-c2ccnc3[nH]ccc23)n1 [AZD6738] + C1CC(C1)(C(=O)[O-])C(=O)[O-].N.N.[Pt+2] [Carboplatin] (first compound max 10 µM, 7x7, partner max 10 µM)	0.0051	-0.0075	-0.0575	-0.028	-0.0116	-0.0426	-0.0043	-0.0585	-0.0539	-0.0351	0.0134	-0.093	-0.0447	0.471
C[C@@H]1COCCN1c1cc(C2([S@](C)(=N)=O)CC2)nc(-c2ccnc3[nH]ccc23)n1 [AZD6738] + Nc1ccn([C@@H]2O[C@H](CO)[C@@H](O)C2(F)F)c(=O)n1 [Gemcitabine] (first compound max 10 µM, 7x7, partner max 0.3 µM)	0.0928	0.0427	0.0853	0.0248	-0.0072	0.0483	0.032	–	0.008	–	0.065	0.0014	0.0863	–
Cc1cc2ncnn2cc1Nc1ncc2c(n1)n(C1CCOCC1)c(=O)n2C [AZD7648] + COc1cc([C@@H]2c3cc4c(cc3[C@@H](O[C@@H]3O[C@@H]5CO[C@@H](C)O[C@H]5[C@H](O)[C@H]3O)[C@H]3COC(=O)[C@H]23)OCO4)cc(OC)c1O [Etoposide] (first compound max 10 µM, 7x7, partner max 10 µM)	0.132	0.159	-0.0205	0.0634	-0.0009	0.101	0.0997	0.0098	-0.0254	0.122	0.0025	0.0655	0.0526	0.878
C[C@@H](Nc1cc(F)cc(F)c1)c1cc(C(=O)N(C)C)cc2c(=O)cc(N3CCOCC3)oc12 [AZD8186] + C1CN(CCC1(C(=O)N[C@@H](CCO)C2=CC=C(C=C2)Cl)N)C3=NC=NC4=C3C=CN4 [AZD5363] (first compound max 10 µM, 7x7, partner max 10 µM)	0.0563	0.0692	-0.0177	-0.0269	-0.0213	-0.0397	-0.0501	0.0403	-0.0731	-0.0583	-0.0251	-0.0446	-0.0345	0.249
C[C@@H](Nc1cc(F)cc(F)c1)c1cc(C(=O)N(C)C)cc2c(=O)cc(N3CCOCC3)oc12 [AZD8186] + CC(=O)c1c(C)c2cnc(Nc3ccc(N4CCNCC4)cn3)nc2n(C2CCCC2)c1=O [Palbociclib] (first compound max 10 µM, 7x7, partner max 10 µM)	0.0622	0.0726	0.0015	0.0108	-0.0155	0.0114	-0.0435	0.0384	-0.0127	0.0976	-0.0443	-0.0484	-0.0038	0.601
C[C@@H](Oc1cc(-c2cnn(C3CCNCC3)c2)cnc1N)c1c(Cl)ccc(F)c1Cl [Crizotinib] + CC1=C(C(=CC=C1)Cl)NC(=O)C2=CN=C(S2)NC3=CC(=NC(=N3)C)N4CCN(CC4)CCO [Dasatinib] (first compound max 10 µM, 7x7, partner max 2 µM)	-0.065	0.014	-0.0512	0.0049	-0.0119	0.0652	-0.02	0.0578	0.035	0.0493	-0.0332	-0.118	0.01	0.848
C[C@@H](Oc1cc(-c2cnn(C3CCNCC3)c2)cnc1N)c1c(Cl)ccc(F)c1Cl [Crizotinib] + Cn1cnc2c(F)c(Nc3ccc(Br)cc3Cl)c(C(=O)NOCCO)cc21 [Selumetinib] (first compound max 10 µM, 7x7, partner max 10 µM)	-0.0432	0.023	-0.0843	-0.0546	-0.0552	-0.005	-0.0274	0.0008	-0.0323	0.0259	-0.0114	-0.0926	-0.0221	0.838
N#Cc1cnc(Nc2cc(NC[C@H]3CNCCO3)c(C(F)(F)F)cn2)cn1 [SRA737] + CCc1c2c(nc3ccc(O)cc13)-c1cc3c(c(=O)n1C2)COC(=O)[C@]3(O)CC [SN-38] (first compound max 10 µM, 7x7, partner max 0.3 µM)	-0.0857	-0.0374	0.083	-0.0471	-0.0423	0.0836	0.0384	-0.0004	-0.0428	-0.031	0.0404	-0.0022	0.0442	–
N#Cc1cnc(Nc2cc(NC[C@H]3CNCCO3)c(C(F)(F)F)cn2)cn1 [SRA737] + Nc1ccn([C@@H]2O[C@H](CO)[C@@H](O)C2(F)F)c(=O)n1 [Gemcitabine] (first compound max 10 µM, 7x7, partner max 0.3 µM)	0.0179	0.0489	0.145	-0.0168	-0.0212	0.0597	0.0954	0.0843	-0.0421	–	0.115	0.0566	0.117	–

Source: the supplement of paper PMC11061612
